According to patent publication US20100056601A1, “Control agent containing N-Substituted indole derivative for acarian parasitic on animal” (Nippon Kayaku Kabushiki Kaisha, priority 2004, published 2010):
Like-named read-outs stand apart in the source and are kept apart here.

Legend:
std:ddy strain male mice = test: Toxicity to mouse, administration into the stomach (Test Example 3); type: in vivo; conditions: into the stomach in olive oil
Experimental: The compound listed in Table 1 or Fipronil was dissolved in olive oil to a predetermined concentration, and the resulting solution was directly administered into the stomachs of std:ddy strain male mice by the use of a probe. The dose was 30 mg/kg or 100 mg/kg. Whether the mice were alive or dead was observed 3 hours, 1 day, 7 days and 14 days after the administration.

[1] = system: hatched larvae of Haemaphysalis longicornis; test: In vivo control effect on ticks on rabbit ears, spot-on treatment (Test Example 2)
Experimental: About 40 hatched larvae of Haemaphysalis longicornis were inoculated on the ears of a rabbit by the use of a cloth bag, made parasitic on the rabbit and allowed to suck the blood. After 24 hours, the cloth bag was taken off and ticks sucking the blood were counted. […] The left ear was not treated. Three hours, 1 day and 2 days after the spot-on treatment, the living ticks on each of the right and left ears were counted. As a control animal, there was used a rabbit whose right ear had been treated with only the base ingredient for preparation for spot-on treatment and whose left ear had been not treated.

cat = test: Administration to a cat, spot-on dropping, clinical symptom (Test Example 4); conditions: for Clinical symptom: 0.5 ml spot-on
Description: After the dropping, the clinical symptom of the cat was observed.

[2] = system: hatched larvae of Haemaphysalis longicornis; test: In vitro control effect on acarians, treated Pasteur's pipette test (Test Example 1); type: in vivo
Experimental: Neoglamine was added to the emulsion of Example 1 in an amount of 0.01% and the resulting mixture was diluted with tap water to each concentration shown in Table 2. After a commercial 0.5×15 cm Pasteur's pipette was immersed in the dilution for 30 seconds, it was vertically stood on cotton and air-dried. The head of the air-dried Pasteur's pipette was plugged with cotton, and 10 hatched larvae of Haemaphysalis longicornis were sucked from the cotton-plugged end side by the use of a suction pump and then the other end was sealed with putty. After the suction, the pipette was allowed to stand in a desiccator containing a saturated aqueous disodium hydrogenphosphate solution and maintained at 23° C. Observation was carried out after 2 days and after 4 days. Fipronil was used as a positive control.

[3] = system: two-spotted spider mite (Tetranychus urticae); test: Comparative test: insecticidal effect on two-spotted spider mite, leaf immersion (Test Example 5); type: in vivo; conditions: for insecticidal activity against the two-spotted spider mites (in words): 200 ppm, 2 days after immersion; for mortality at 200 ppm: Tetranychus urticae, in Phaseolus vulgaris, 48 h, read-out: Mortality after 2 days (%)
Experimental: Twenty adult female two-spotted spider mites were released on the leaves of a potted kidney bean plant. One day after the release, the kidney bean leaves were immersed for several seconds in a chemical solution obtained by diluting a 20% emulsion of each compound with tap water to a concentration of 200 ppm. After air-dryness, the leaves were placed in a room thermostated at 25° C. Two days after the immersion, whether the adult two-spotted spider mites on the leaves were alive or dead were judged and the dead and alive were counted. The mortality was calculated.

[4] = left ear (not treated), right ear spot-on 0.1 ml of 20% solution
[5] = right ear (treated), spot-on 0.1 ml of 20% solution
[6] = Haemaphysalis longicornis, 48 h, read-out: Mortality after 2 days
[7] = Haemaphysalis longicornis, 96 h, read-out: Mortality after 4 days

| SMILES | Cumulative mortality after 3 hours (std:ddy strain male mice; 30 mg/kg) | Cumulative mortality after 1 day (std:ddy strain male mice; 30 mg/kg) | Cumulative mortality after 7 days (std:ddy strain male mice; 30 mg/kg) | Cumulative mortality after 14 days (std:ddy strain male mice; 30 mg/kg) | Cumulative mortality after 3 hours (std:ddy strain male mice; 100 mg/kg) | Cumulative mortality after 1 day (std:ddy strain male mice; 100 mg/kg) | Cumulative mortality after 7 days (std:ddy strain male mice; 100 mg/kg) | Cumulative mortality after 14 days (std:ddy strain male mice; 100 mg/kg) | mortality at 0.1 ppm [2, 6] | mortality at 1 ppm [2, 6] | mortality at 10 ppm [2, 6] | mortality at 1 ppm [2, 7] | mortality at 10 ppm [2, 7] | insecticidal activity against the two-spotted spider mites (in words) [3] | mortality at 200 ppm [3] | further results |
| --- | --- | --- | --- | --- | --- | --- | --- | --- | --- | --- | --- | --- | --- | --- | --- | --- |
| FC(Cl)(Cl)Sc1cn(-c2c(Cl)cc(C(F)(F)F)cc2Cl)c2ccccc12 [Compound 17, 1-(2,6-dichloro-4-trifluoromethylphenyl)-3-(dichlorofluoromethylthio)indole] | 0/5 | 0/5 | 0/5 | 0/5 | 0/5 | 0/5 | 0/5 | 0/5 | 0% | 20% | 100% | 80% | 100% | no insecticidal activity | 0% | extermination of ticks on the treated right ear (in words) ([1]; in 3 hours after the treatment): quickly exterminated ticks on the right ear; extermination of ticks on the untreated left ear (in words) ([1]; in 1 day after the treatment): also exterminated ticks on the left ear; Number of living ticks, before dropping ([1]; left ear (not treated), baseline before spot-on on right ear): 15; Number of living ticks, after 3 hours [1, 4]: 15; Number of living ticks, after 1 day [1, 4]: 0; Number of living ticks, after 2 days [1, 4]: 0; Number of living ticks, before dropping ([1]; right ear (treated ear), baseline before spot-on of 0.1 ml 20% solution): 15; Number of living ticks, after 3 hours [1, 5]: 3; Number of living ticks, after 1 day [1, 5]: 1; Number of living ticks, after 2 days [1, 5]: 0; Clinical symptom (cat; cat, dropping concentration 10%): No sign was recognized; Clinical symptom (cat; cat, dropping concentration 20%): No sign was recognized; Clinical symptom (cat; cat, dropping concentration 30%): No sign was recognized; abnormal sign due to the spot-on dropping (cat; cat, 10, 20 or 30% liquid drops): no abnormal sign; toxicity to cat (in words) (cat; cat, spot-on 10, 20 or 30% liquid drops): only low toxicity; mortality at 0.1 ppm [2, 7]: 0% |
| N#Cc1nn(-c2c(Cl)cc(C(F)(F)F)cc2Cl)c(N)c1[S+]([O-])C(F)(F)F (centres unmarked) [Fipronil, 5-amino-1-(2,6-dichloro-4-(trifluoromethyl)phenyl)-4-((trifluoromethyl)sulfinyl)-1H-pyrazole-3-carbonitrile, reference compound] | 0/5 | 1/5 | 1/5 | 1/5 | 1/5 | 5/5 | 5/5 | 5/5 | – | – | – | – | – | – | – | mortality at 0.1 ppm ([2]; 48 h, 0.1 ppm, Haemaphysalis longicornis larvae, 23° C., read-out: Mortality after 2 days): 30%; mortality at 1 ppm ([2]; 48 h, 1 ppm, Haemaphysalis longicornis larvae, 23° C., read-out: Mortality after 2 days): 100%; mortality at 10 ppm ([2]; 48 h, 10 ppm, Haemaphysalis longicornis larvae, 23° C., read-out: Mortality after 2 days): 100%; mortality at 0.1 ppm ([2]; 96 h, 0.1 ppm, Haemaphysalis longicornis larvae, 23° C., read-out: Mortality after 4 days): 60%; mortality at 1 ppm ([2]; 96 h, 1 ppm, Haemaphysalis longicornis larvae, 23° C., read-out: Mortality after 4 days): 100%; mortality at 10 ppm ([2]; 96 h, 10 ppm, Haemaphysalis longicornis larvae, 23° C., read-out: Mortality after 4 days): 100% |
| FC(F)(F)Sc1cn(-c2c(Cl)cc(C(F)(F)F)cc2Cl)c2ccccc12 [Compound 25, 1-(2,6-dichloro-4-trifluoromethylphenyl)-3-(trifluoromethylthio)indole] | 0/5 | 0/5 | 0/5 | 0/5 | 0/5 | 0/5 | 0/5 | 0/5 | 100% | 100% | 100% | 100% | 100% | no insecticidal activity | 0% | mortality at 0.01 ppm [2, 6]: 30%; mortality at 0.01 ppm [2, 7]: 60% |
